Data from patent US20120225862A1, “HETEROARYL BENZAMIDES, COMPOSITIONS AND METHODS OF USE” (AUCKLAND UNIVSERVICES LIMITED, priority 2009, published 2012).

Key:
[1] = tested on: RCC4; assay: XTT IC50 / viability assay, RCC4 cells; assay type: cell-based, human; conditions: Homo sapiens, RCC4, 96 h; XTT assay, four days
Experimental: (§1) RCC4 parental and RCC4 with VHL-reintroduced (RCC4/VHL), SN12C and SN12C-CSCG-VHL shRNA were maintained in DMEM supplemented with 10% FCS.
(§2) IC50 values for compounds were determined by XTT assay. For 2,3-bis[2-methoxy-4-nitro-5-sulfophenyl]-2H-tetrazolium-5-carboxanilide inner salt (XTT) assays, five thousand cells were plated in 96-well plates. The next day, vehicle or drug was added to each well and incubated for four days. Media was aspirated and phenol red-free medium with 0.3 mg/mL XTT and 2.65 ug/mL N-methyl dibenzopyrazine methyl sulfate was added. This was incubated at 37° C. for 1-2 hours and absorbance was read at 450 nm. IC50 values for each compound were calculated using linear interpolation.
(§3) For 2,3-bis[2-methoxy-4-nitro-5-sulfophenyl]-2H-tetrazolium-5-carboxanilide (XTT) assays, five thousand cells were plated in 96-well plates. The next day, vehicle (DMSO) or drug was added by serial dilution. Four days later, media were aspirated, XTT solution (0.3 mg/ml of XTT (Sigma), 2.65 mg/ml N-methyl dibenxopyrazine methyl sulfate (Simga) in phenol red-free media) was added, and the plates were incubated at 37° C. for 1-2 hours. Metabolism of XTT was quantified by measuring the absorbance at 450 nm. IC50s were calculated using linear interpolation. For clonogenic survival assays, three hundred cells were plated per 60 mm tissue culture dish. The cells were allowed to attach overnight and then treated with vehicle or drug for 14 days. Colonies were fixed and stained with crystal violet (0.1% crystal violet in 95% ethanol). All conditions were measured in triplicate and each experiment was done in duplicate or triplicate. To determine necrosis, cells were treated with drug for a given time point. Media and cells were collected, centrifugated, and resuspended in 0.4% trypan blue (Invitrogen). Live and dead cells were counted on a hematocytometer.

[2] = tested on: RCC4/VHL; assay: XTT IC50 assay, selectivity RCC4 versus RCC4 with VHL-reintroduced; assay type: cell-based, human; conditions: selectivity ratio of XTT IC50 values, RCC4 vs RCC4/VHL
Experimental: as §1, §2, §3

| Structure (SMILES) | IC50 [1] | Ratio (RCC4:RCC/VHL) [2] |
| --- | --- | --- |
| COCC#Cc1ccc(S(=O)(=O)NCc2ccc(C(=O)Nc3cccnc3)cc2)cc1 [Example 98, 4-{[({4-[3-(Methyloxy)-1-propynyl]phenyl}sulfonyl)amino]methyl}-N-(3-pyridinyl)benzamide] | 1 to 20 µM | a (“a” reflects a ratio of RCC4/RCC-VHL+ ranging from 1 to 10) |
| O=C(Nc1cccnc1)c1ccc(CNS(=O)(=O)c2cccc(Br)c2)cc1 [Example 22, 4-((3-Bromophenylsulfonamido)methyl)-N-(pyridin-3-yl)benzamide] | < 1 µM | b (“b” reflects from 10 to 100) |
| N#Cc1cccc(S(=O)(=O)NCc2ccc(C(=O)Nc3cccnc3)cc2)c1 [Example 24, 4-((3-Cyanophenylsulfonamido)methyl)-N-(pyridin-3-yl)benzamide] | 1 to 20 µM | a (“a” reflects a ratio of RCC4/RCC-VHL+ ranging from 1 to 10) |
| O=C(Nc1ccncc1)c1ccc(CNS(=O)(=O)c2ccccc2)cc1 [Example 3, 4-(Phenylsulfonamidomethyl)-N-(pyridin-4-yl)benzamide] | > 20 µM |  |
| Cc1ccc(S(=O)(=O)NCc2ccc(C(=O)Nc3cccnc3)cc2)cc1F [Example 67, 4-((3-Fluoro-4-methylphenylsulfonamido)methyl)-N-(pyridin-3-yl)benzamide] | < 1 µM | c (“c” reflects a ratio of >100) |
| Cc1nc(-c2cccc(S(=O)(=O)NCc3ccc(C(=O)Nc4cccnc4)cc3)c2)cs1 [Example 31, 4-[({[3-(2-Methyl-1,3-thiazol-4-yl)phenyl]sulfonyl}amino)methyl]-N-(3-pyridinyl)benzamide] | 1 to 20 µM | b (“b” reflects from 10 to 100) |
| NCCOCCOCCOCCOCCOCCOCC#Cc1ccc(S(=O)(=O)NCc2ccc(C(=O)Nc3ccncc3)cc2)cc1 [Example 105, 4-[({[4-(21-Amino-4,7,10,13,16,19-hexaoxahenicos-1-yn-1-yl)phenyl]sulfonyl}amino)methyl]-N-(4-pyridinyl)benzamide] | > 20 µM |  |
| Cc1ccccc1S(=O)(=O)NCc1ccc(C(=O)Nc2cccnc2)cc1 [Example 10, 4-((2-Methylphenylsulfonamido)methyl)-N-(pyridin-3-yl)benzamide] | 1 to 20 µM | a (“a” reflects a ratio of RCC4/RCC-VHL+ ranging from 1 to 10) |
| COc1ccc(-c2ccc(S(=O)(=O)NCc3ccc(C(=O)Nc4cccnc4)cc3)cc2)cc1 [Example 52, 4-({[(4′-Methoxy[1,1′-biphenyl]-4-yl)sulfonyl]amino}methyl)-N-(3-pyridinyl)benzamide] | 1 to 20 µM | b (“b” reflects from 10 to 100) |
| O=C(Nc1cccnc1)c1ccc(CNS(=O)(=O)c2cccc(F)c2)cc1 [Example 20, 4-((3-Fluorophenylsulfonamido)methyl)-N-(pyridin-3-yl)benzamide] | < 1 µM | b (“b” reflects from 10 to 100) |
| CC(C)(C)c1ccc(COC(=O)NCc2ccc(C(=O)Nc3cccnc3)cc2)cc1 [Compound D, reference compound] | > 20 µM |  |
| CN1CCN(c2cccc(S(=O)(=O)NCc3ccc(C(=O)Nc4cccnc4)cc3)c2)CC1 [Example 132, 4-[({[3-(4-Methyl-1-piperazinyl)phenyl]sulfonyl}amino)methyl]-N-(3-pyridinyl)benzamide] | < 1 µM | b (“b” reflects from 10 to 100) |
| CCCc1ccc(S(=O)(=O)NCc2ccc(C(=O)Nc3cccnc3)cc2)cc1 [Example 37, 4-((4-Propylphenylsulfonamido)methyl)-N-(pyridin-3-yl)benzamide] | < 1 µM | b (“b” reflects from 10 to 100) |
| Cc1cccc(Nc2nc(-c3ccncc3)cs2)c1 [Compound E, reference compound] | 1 to 20 µM | b (“b” reflects from 10 to 100) |
| O=C(Nc1ccncc1)c1ccc(CNS(=O)(=O)c2ccc(Br)cc2)cc1 [Example 96, 4-[(4-Bromophenylsulfonamido)methyl]-N-(4-pyridinyl)benzamide] | > 20 µM |  |
| COc1ccc(S(=O)(=O)NCc2ccc(C(=O)Nc3cccnc3)cc2)cc1OC [Example 61, 4-((3,4-Dimethoxyphenylsulfonamido)methyl)-N-(pyridin-3-yl)benzamide] | < 1 µM | c (“c” reflects a ratio of >100) |
| O=C(Nc1cccnc1)c1ccc(CNS(=O)(=O)c2ccc(CCCN3CCOCC3)cc2)cc1 [Example 141, 4-{[({4-[3-(4-Morpholinyl)propyl]phenyl}sulfonyl)amino]methyl}-N-(3-pyridinyl)benzamide] | < 1 µM | c (“c” reflects a ratio of >100) |
| O=C(Nc1cccnc1)c1ccc(CNS(=O)(=O)c2ccc(NCCCN3CCOCC3)cc2)cc1 [Example 131, 4-({[(4-{[3-(4-Morpholinyl)propyl]amino}phenyl)sulfonyl]amino}methyl)-N-(3-pyridinyl)benzamide] | < 1 µM | b (“b” reflects from 10 to 100) |
| O=C(Nc1cccnc1)c1ccc(CNS(=O)(=O)c2ccc(-c3ncccn3)cc2)cc1 [Example 57, 4-[({[4-(2-Pyrimidinyl)phenyl]sulfonyl}amino)methyl]-N-(3-pyridinyl)-benzamide] | < 1 µM | b (“b” reflects from 10 to 100) |
| CCN(Cc1ccc(C(=O)Nc2cccnc2)cc1)S(=O)(=O)c1ccc(C(C)(C)C)cc1 [Example 139, 4-{[[(4-tert-Butylphenyl)sulfonyl](ethyl)amino]methyl}-N-(3-pyridinyl)benzamide] | > 20 µM | a (“a” reflects a ratio of RCC4/RCC-VHL+ ranging from 1 to 10) |
| CC(C)(C)c1ccc(CNCc2ccc(C(=O)Nc3cccnc3)cc2)cc1 [Compound B, reference compound] | 1 to 20 µM | a (“a” reflects a ratio of RCC4/RCC-VHL+ ranging from 1 to 10) |
| O=C(Nc1ccccn1)c1ccc(CNS(=O)(=O)c2ccccc2)cc1 [Example 1, 4-(Phenylsulfonamidomethyl)-N-(pyridin-2-yl)benzamide] | > 20 µM |  |
| O=C(Nc1cccnc1)c1ccc(CNS(=O)(=O)c2ccc(Cc3ccccc3)cc2)cc1 [Example 135, 4-({[(4-Benzylphenyl)sulfonyl]amino}methyl)-N-(3-pyridinyl)benzamide] | < 1 µM | b (“b” reflects from 10 to 100) |
| O=C(Nc1cccnc1)c1cccc(CNS(=O)(=O)c2ccccc2)c1 [Example 92, 3-[(Phenylsulfonamido)methyl]-N-(3-pyridinyl)benzamide] | > 20 µM |  |
| O=C(Nc1ccncc1)c1ccc(CNS(=O)(=O)c2ccc(F)cc2)cc1 [Example 97, 4-[(4-Fluorophenylsulfonamido)methyl]-N-(4-pyridinyl)benzamide] | > 20 µM |  |
| CC(C)(C)c1ccc(C(=O)NCc2ccc(C(=O)Nc3cccnc3)cc2)cc1 [Example 86, 4-tert-Butyl-N-(4-(pyridin-3-ylcarbamoyl)benzyl)benzamide] | > 20 µM |  |
| Cc1cc(C)cc(CNCc2ccc(C(=O)Nc3cccnc3)cc2)c1 [Compound C, reference compound] | > 20 µM |  |
| CC(C)(C)c1ccc(S(=O)(=O)NCc2cccc(C(=O)Nc3cccnc3)c2)cc1 [Example 91, 3-[(4-tert-Butylphenylsulfonamido)methyl]-N-(3-pyridinyl)benzamide] | > 20 µM |  |
